# According to the supplement of paper PMC11061612:
# How the values were obtained:
# Selumetinib = compound: Cn1cnc2c(F)c(Nc3ccc(Br)cc3Cl)c(C(=O)NOCCO)cc21 [Selumetinib]; settings: max 10 µM
# How it was run: (§1)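 Cancer cell lines were seeded into 1536-well plates in 7.5 μl medium (DMEM/F12 or RPMI, 10% FBS), held 24 hours at 37°C and 5% CO2, and dosed for 72 hours with final DMSO typically 0.2%. Luminescence from CellTiter-Glo 2.0, scaled between blank-well and DMSO-well means, served as viability. The single-agent IC50 was obtained from dose-response fits with a non-linear mixed effects model, each fit being a two-parameter logistic curve.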
# Savolitinib = compound: C[C@@H](c1ccc2nccn2c1)n1nnc2ncc(-c3cnn(C)c3)nc21 [Savolitinib]; settings: max 1 µM
# How it was run: as §1
# Crizotinib = compound: C[C@@H](Oc1cc(-c2cnn(C3CCNCC3)c2)cnc1N)c1c(Cl)ccc(F)c1Cl [Crizotinib]; settings: max 10 µM
# How it was run: as §1
# Taselisib = compound: Cc1nc(-c2cn3c(n2)-c2ccc(-c4cnn(C(C)(C)C(N)=O)c4)cc2OCC3)n(C(C)C)n1 [Taselisib]; settings: max 10 µM
# How it was run: as §1
# Dasatinib = compound: CC1=C(C(=CC=C1)Cl)NC(=O)C2=CN=C(S2)NC3=CC(=NC(=N3)C)N4CCN(CC4)CCO [Dasatinib]; settings: max 2 µM
# How it was run: as §1
# SG3199 = compound: CC1=CN2[C@@H](C1)C=NC3=CC(=C(C=C3C2=O)OC)OCCCCCOC4=C(C=C5C(=C4)N=C[C@@H]6CC(=CN6C5=O)C)OC [SG3199]; settings: max 0.001 µM
# How it was run: as §1
# SRA737 = compound: N#Cc1cnc(Nc2cc(NC[C@H]3CNCCO3)c(C(F)(F)F)cn2)cn1 [SRA737]; settings: max 10 µM
# How it was run: as §1
# Olaparib = compound: O=C(c1cc(Cc2n[nH]c(=O)c3ccccc23)ccc1F)N1CCN(C(=O)C2CC2)CC1 [Olaparib]; settings: max 10 µM
# How it was run: as §1
# 5-Fluorouracil = compound: O=c1[nH]cc(F)c(=O)[nH]1 [5-Fluorouracil]; settings: max 20 µM
# How it was run: as §1
# Prexasertib = compound: COc1cccc(OCCCN)c1-c1cc(Nc2cnc(C#N)cn2)n[nH]1 [Prexasertib]; settings: max 1 µM
# How it was run: as §1
# AZD5363 = compound: C1CN(CCC1(C(=O)N[C@@H](CCO)C2=CC=C(C=C2)Cl)N)C3=NC=NC4=C3C=CN4 [AZD5363]; settings: max 10 µM
# How it was run: as §1
# AZD2811 = compound: CCN(CCO)CCCOc1ccc2c(Nc3cc(CC(=O)Nc4cccc(F)c4)[nH]n3)ncnc2c1 [AZD2811]; settings: max 1 µM
# How it was run: as §1
# Etoposide = compound: COc1cc([C@@H]2c3cc4c(cc3[C@@H](O[C@@H]3O[C@@H]5CO[C@@H](C)O[C@H]5[C@H](O)[C@H]3O)[C@H]3COC(=O)[C@H]23)OCO4)cc(OC)c1O [Etoposide]; settings: max 10 µM
# How it was run: as §1
# Palbociclib = compound: CC(=O)c1c(C)c2cnc(Nc3ccc(N4CCNCC4)cn3)nc2n(C2CCCC2)c1=O [Palbociclib]; settings: max 10 µM
# How it was run: as §1
# Trametinib = compound: CC(=O)Nc1cccc(-n2c(=O)n(C3CC3)c(=O)c3c(Nc4ccc(I)cc4F)n(C)c(=O)c(C)c32)c1 [Trametinib]; settings: max 1 µM
# How it was run: as §1
# Doxorubicin = compound: COc1cccc2c1C(=O)c1c(O)c3c(c(O)c1C2=O)C[C@@](O)(C(=O)CO)C[C@@H]3O[C@H]1C[C@H](N)[C@H](O)[C@H](C)O1 [Doxorubicin]; settings: max 1 µM
# How it was run: as §1
# MK-2206 = compound: NC1(c2ccc(-c3nc4ccn5c(=O)[nH]nc5c4cc3-c3ccccc3)cc2)CCC1 [MK-2206]; settings: max 10 µM
# How it was run: as §1
# AZD6738 = compound: C[C@@H]1COCCN1C2=NC(=NC(=C2)C3(CC3)[S@](=N)(=O)C)C4=C5C=CNC5=NC=C4 [AZD6738]; settings: max 10 µM
# How it was run: as §1
# Gefitinib = compound: COc1cc2ncnc(Nc3ccc(F)c(Cl)c3)c2cc1OCCCN1CCOCC1 [Gefitinib]; settings: max 10 µM
# How it was run: as §1
# Alisertib = compound: COc1cc(Nc2ncc3c(n2)-c2ccc(Cl)cc2C(c2c(F)cccc2OC)=NC3)ccc1C(=O)O [Alisertib]; settings: max 10 µM
# How it was run: as §1
# AZD8186 = compound: C[C@@H](Nc1cc(F)cc(F)c1)c1cc(C(=O)N(C)C)cc2c(=O)cc(N3CCOCC3)oc12 [AZD8186]; settings: max 10 µM
# How it was run: as §1
# Lapatinib = compound: CS(=O)(=O)CCNCc1ccc(-c2ccc3ncnc(Nc4ccc(OCc5cccc(F)c5)c(Cl)c4)c3c2)o1 [Lapatinib]; settings: max 10 µM
# How it was run: as §1
# AZD5153 = compound: COc1nnc2ccc(N3CCC(c4ccc(OCCN5CCN(C)C(=O)[C@H]5C)cc4)CC3)nn12 [AZD5153]; settings: max 1 µM
# How it was run: as §1
# AZD1775 = compound: C=CCn1c(=O)c2cnc(Nc3ccc(N4CCN(C)CC4)cc3)nc2n1-c1cccc(C(C)(C)O)n1 [AZD1775]; settings: max 3 µM
# How it was run: as §1
# Carboplatin = compound: C1CC(C1)(C(=O)[O-])C(=O)[O-].N.N.[Pt+2] [Carboplatin]; settings: max 10 µM
# How it was run: as §1
# AZD0156 = compound: CN(C)CCCOc1ccc(-c2ccc3ncc4c(c3c2)n(C2CCOCC2)c(=O)n4C)cn1 [AZD0156]; settings: max 3 µM
# How it was run: as §1
# AZD7648 = compound: Cc1cc2ncnn2cc1Nc1ncc2c(n1)n(C1CCOCC1)c(=O)n2C [AZD7648]; settings: max 10 µM
# How it was run: as §1
# AZD5991 = compound: Cc1c2c(nn1C)CSCc1cc(n(C)n1)CSc1cc(c3ccccc3c1)OCCCc1c(C(=O)O)n(C)c3c-2c(Cl)ccc13 [AZD5991]; settings: max 1 µM
# How it was run: as §1
# AZD4320 = compound: CN(CC[C@H](CSC1=CC=CC=C1)NC2=C(C=C(C=C2)S(=O)(=O)NC(=O)C3=CC=C(C=C3)N4CCC(CC4)[C@H](C5=CC=CC=C5C6=CC=C(C=C6)Cl)O)S(=O)(=O)C(F)(F)F)CCO [AZD4320]; settings: max 1 µM
# How it was run: as §1
# Gemcitabine = compound: Nc1ccn([C@@H]2O[C@H](CO)[C@@H](O)C2(F)F)c(=O)n1 [Gemcitabine]; settings: max 0.3 µM
# How it was run: as §1
# [1] = compound: O=C(Nc1ccc2[nH]nc(-c3ccncc3)c2c1)[C@@H]1CCN(CC(=O)N2CCN(c3ccc(-c4ncccn4)cc3)CC2)C1; settings: max 5 µM
# How it was run: as §1
# Paclitaxel = compound: CC(=O)O[C@H]1C(=O)[C@@]2(C)[C@H]([C@H](OC(=O)c3ccccc3)[C@]3(O)C[C@H](OC(=O)[C@H](O)[C@@H](NC(=O)c4ccccc4)c4ccccc4)C(C)=C1C3(C)C)[C@]1(OC(C)=O)CO[C@@H]1C[C@@H]2O [Paclitaxel]; settings: max 3 µM
# How it was run: as §1
# Venetoclax = compound: CC1(C)CCC(CN2CCN(c3ccc(C(=O)NS(=O)(=O)c4ccc(NCC5CCOCC5)c([N+](=O)[O-])c4)c(Oc4cnc5[nH]ccc5c4)c3)CC2)=C(c2ccc(Cl)cc2)C1 [Venetoclax]; settings: max 1 µM
# How it was run: as §1
# SN-38 = compound: CCc1c2c(nc3ccc(O)cc13)-c1cc3c(c(=O)n1C2)COC(=O)[C@]3(O)CC [SN-38]; settings: max 0.3 µM
# How it was run: as §1
# AZD1390 = compound: CC(C)n1c(=O)n(C)c2cnc3cc(F)c(-c4ccc(OCCCN5CCCCC5)nc4)cc3c21 [AZD1390]; settings: max 0.3 µM
# How it was run: as §1
Cell Line,"IC50, cell viability 72 h (Selumetinib) [nM]","IC50, cell viability 72 h (Savolitinib) [nM]","IC50, cell viability 72 h (Crizotinib) [nM]","IC50, cell viability 72 h (Taselisib) [nM]","IC50, cell viability 72 h (Dasatinib) [nM]","IC50, cell viability 72 h (SG3199) [nM]","IC50, cell viability 72 h (SRA737) [nM]","IC50, cell viability 72 h (Olaparib) [nM]","IC50, cell viability 72 h (5-Fluorouracil) [nM]","IC50, cell viability 72 h (Prexasertib) [nM]","IC50, cell viability 72 h (AZD5363) [nM]","IC50, cell viability 72 h (AZD2811) [nM]","IC50, cell viability 72 h (Etoposide) [nM]","IC50, cell viability 72 h (Palbociclib) [nM]","IC50, cell viability 72 h (Trametinib) [nM]","IC50, cell viability 72 h (Doxorubicin) [nM]","IC50, cell viability 72 h (MK-2206) [nM]","IC50, cell viability 72 h (AZD6738) [nM]","IC50, cell viability 72 h (Gefitinib) [nM]","IC50, cell viability 72 h (Alisertib) [nM]","IC50, cell viability 72 h (AZD8186) [nM]","IC50, cell viability 72 h (Lapatinib) [nM]","IC50, cell viability 72 h (AZD5153) [nM]","IC50, cell viability 72 h (AZD1775) [nM]","IC50, cell viability 72 h (Carboplatin) [nM]","IC50, cell viability 72 h (AZD0156) [nM]","IC50, cell viability 72 h (AZD7648) [nM]","IC50, cell viability 72 h (AZD5991) [nM]","IC50, cell viability 72 h (AZD4320) [nM]","IC50, cell viability 72 h (Gemcitabine) [nM]","IC50, cell viability 72 h [1] [nM]","IC50, cell viability 72 h (Paclitaxel) [nM]","IC50, cell viability 72 h (Venetoclax) [nM]","IC50, cell viability 72 h (SN-38) [nM]","IC50, cell viability 72 h (AZD1390) [nM]"
P31-FUJ (Acute Myeloid Leukemia),8970,> 1000,1740,3310,> 2000,> 1,534,> 10000,> 20000,2.72,2410,24,2760,> 10000,616,255,1680,1290,> 10000,1060,> 10000,> 10000,148,83.1,> 10000,> 3000,> 10000,157,243,179,1570,5.09,758,11.7,> 300
SK-LMS-1 (Other Solid Carcinomas),> 10000,> 1000,9410,4110,> 2000,> 1,> 10000,> 10000,> 20000,386,> 10000,> 1000,4430,> 10000,484,511,> 10000,> 10000,> 10000,8330,7780,> 10000,> 1000,1630,> 10000,> 3000,> 10000,> 1000,> 1000,17.4,4530,16.1,> 1000,8.12,> 300
SK-MEL-1 (Melanoma),509,> 1000,> 10000,> 10000,> 2000,> 1,> 10000,> 10000,> 20000,659,> 10000,> 1000,> 10000,> 10000,5.25,> 1000,> 10000,> 10000,> 10000,> 10000,> 10000,> 10000,> 1000,> 3000,> 10000,> 3000,> 10000,> 1000,> 1000,> 300,846,> 3000,> 1000,135,> 300
SK-UT-1 (Other Solid Carcinomas),> 10000,> 1000,> 10000,8850,> 2000,> 1,3420,> 10000,> 20000,21.6,> 10000,> 1000,3400,> 10000,> 1000,971,> 10000,4170,> 10000,> 10000,> 10000,> 10000,694,1100,> 10000,> 3000,> 10000,> 1000,> 1000,9.12,> 5000,28.2,> 1000,22.7,> 300
SLVL (B-Cell Non-Hodgkin's Lymphoma),9510,> 1000,7080,5560,1810,> 1,2520,> 10000,1560,19.9,4580,195,850,> 10000,402,76.8,> 10000,3760,> 10000,148,> 10000,> 10000,101,836,> 10000,> 3000,> 10000,> 1000,428,15.1,> 5000,6.06,> 1000,2.35,> 300
